Here are results for 10 compounds from PubChem BioAssay (NCI).

“And” between values parts separate entries of the source, which are not always exact repeats. Equal entries are not always repeated.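 Five concentrations, 48 hours, 96-well plates. At the GI50, growth is halved. TGI: total growth inhibition.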 Bounds are passed on as bounds.

Among the test systems are RPMI-8226 leukemia; MDA-MB-231 breast; T-47D breast; SF-295 CNS; U251 CNS; SK-MEL-5 melanoma; COLO 205 colon; SN12C renal; SR leukemia; EKVX NSCLC.
Holding throughout (test): NCI-60 cell line screen, 48 h

`Cc1cc([N+](=O)[O-])ccc1NS(=O)(=O)c1cc(Cl)ccc1Cl`: the GI50 in the assay on RPMI-8226 leukemia is 1.9 µM; with MDA-MB-231 breast, 3.36 µM; in the assay with T-47D breast, 1.92 µM; with SF-295 CNS, 2.46 µM; with U251 CNS, 2.9 µM; in the assay on SK-MEL-5 melanoma, 1.54 µM. The GI50 in the assay with COLO 205 colon is 3.23 µM; in the assay on SN12C renal, 2.87 µM; in the assay with SR leukemia it was 4.52 µM. Also, the TGI in the assay on RPMI-8226 leukemia amounted to 6.88 µM; in the assay on MDA-MB-231 breast, 16.2 µM; with T-47D breast, 8.01 µM; in the assay on SF-295 CNS, 9.26 µM; in the assay with U251 CNS, 17.4 µM; in the assay on SK-MEL-5 melanoma it was 3.83 µM. Also, the TGI with COLO 205 colon is 12.3 µM; in the assay on SN12C renal, greater than 100 µM; in the assay with SR leukemia, 27.6 µM.

Turning to `C[n+]1c2ccccc2c(Nc2ccc(NS(=O)(=O)CCCCN=C(N)N)cc2)c2ccc(N)cc21`, the GI50 with RPMI-8226 leukemia is 1.43 µM; in the assay on MDA-MB-231 breast, 43.6 µM; in the assay with T-47D breast it was 0.222 µM; in the assay on SF-295 CNS, 0.0785 µM; in the assay with U251 CNS, 0.22 µM; in the assay on SK-MEL-5 melanoma it was 1.2 µM. For the same compound, the GI50 with COLO 205 colon was 1.67 µM; with SN12C renal, 0.0443 µM; in the assay with SR leukemia, 0.138 µM. Further, the TGI was 23.3 µM with RPMI-8226 leukemia; greater than 100 µM in the assay with MDA-MB-231 breast; 13.5 µM in the assay on T-47D breast; greater than 100 µM in the assay with SF-295 CNS; 54 µM in the assay with U251 CNS; 15.2 µM with SK-MEL-5 melanoma. Moreover, the values for the TGI in the assay with COLO 205 colon, in the assay with SN12C renal and in the assay on SR leukemia were greater than 100 µM, greater than 100 µM and greater than 26.3 µM, respectively.

For the compound `COc1ccc2nc(NCN3C(=O)c4ccccc4C3=O)sc2c1`, the TGI in the assay with RPMI-8226 leukemia, in the assay with MDA-MB-231 breast, in the assay with T-47D breast, with EKVX NSCLC, in the assay with SF-295 CNS and in the assay with U251 CNS was greater than 100 µM each time. In addition, the TGI in the assay with SK-MEL-5 melanoma, in the assay on COLO 205 colon and with SN12C renal was greater than 100 µM throughout.

As for `COc1ccc(C2=Nc3c/c(=C\c4c(O)[nH]c5ccc(Cl)cc45)ccc3=N2)cc1`, the GI50 with T-47D breast was 2.22 µM; in the assay on COLO 205 colon, 1.93 µM; in the assay with SR leukemia, 0.693 µM. Moreover, the TGI with T-47D breast is 5.63 µM; in the assay on COLO 205 colon, 3.67 µM; with SR leukemia, 3.4 µM.

With `c1ccc(Nn2c(CCCCCCCCc3nnc(COc4ccccc4)n3Nc3ccccc3)nnc2COc2ccccc2)cc1`, the TGI is greater than 300 µM with RPMI-8226 leukemia; greater than 300 µM in the assay with MDA-MB-231 breast; greater than 300 µM with T-47D breast; greater than 300 µM in the assay with U251 CNS; greater than 300 µM in the assay with SK-MEL-5 melanoma; 8.81 µM and 77.1 µM in the assay on COLO 205 colon. Further, the TGI in the assay on SN12C renal and in the assay with SR leukemia was greater than 300 µM each time. Besides, the GI50 is 12.4 µM in the assay on MDA-MB-231 breast; 12.3 µM and 7.31 µM in the assay on T-47D breast; 1.24 µM and 7.51 µM with SF-295 CNS; 39.6 µM and 144 µM in the assay with U251 CNS; 6.41 µM and 50 µM in the assay on SK-MEL-5 melanoma; 3.18 µM and 19.6 µM in the assay on COLO 205 colon. Also, the GI50 was 35.5 µM and 66.6 µM in the assay with SN12C renal; 8.48 µM and 7.33 µM in the assay on SR leukemia.

On to `C[C@]1(C(=O)O)N[C@H](C(=O)O)CS1`, for which the GI50 was greater than 1000 µM in the assay with RPMI-8226 leukemia; greater than 1000 µM with MDA-MB-231 breast; greater than 1000 µM in the assay on T-47D breast; 933 µM in the assay with SF-295 CNS; greater than 1000 µM in the assay on U251 CNS; 1.48 µM with SK-MEL-5 melanoma. Besides, in the assay with COLO 205 colon, the GI50 is greater than 1000 µM. For the same compound, the TGI is greater than 1000 µM with RPMI-8226 leukemia; greater than 1000 µM in the assay with MDA-MB-231 breast; greater than 1000 µM in the assay on T-47D breast; greater than 1000 µM in the assay on SF-295 CNS; greater than 1000 µM in the assay with U251 CNS; 270 µM in the assay on SK-MEL-5 melanoma. In addition, the TGI in the assay on COLO 205 colon is greater than 1000 µM.

Take `N#C/C(=C\Nc1ccccn1)C(=O)c1ccco1`: the TGI in the assay with RPMI-8226 leukemia, in the assay on MDA-MB-231 breast, in the assay on EKVX NSCLC, with SF-295 CNS, with U251 CNS and in the assay with SK-MEL-5 melanoma was greater than 100 µM in each case. Also, the TGI in the assay on COLO 205 colon, in the assay with SN12C renal and with SR leukemia was greater than 100 µM throughout.

Take `COc1ccc2c3c(c4ccccc4cc13)C(=O)N(CCN(C)CCN)C2=O`: the GI50 in the assay with RPMI-8226 leukemia was 0.166 µM; in the assay with MDA-MB-231 breast, 0.518 µM; in the assay on T-47D breast, 0.0877 µM; in the assay on EKVX NSCLC it was 0.538 µM; with SF-295 CNS it was 0.0437 µM; in the assay on U251 CNS, 0.0776 µM. In addition, the GI50 in the assay on SK-MEL-5 melanoma was 0.186 µM; in the assay on COLO 205 colon, 0.0843 µM; with SN12C renal it was 0.0562 µM. The TGI is 0.75 µM in the assay with RPMI-8226 leukemia; 1.94 µM in the assay with MDA-MB-231 breast; 12.6 µM in the assay on T-47D breast; 2.06 µM in the assay on EKVX NSCLC; 1.03 µM in the assay with SF-295 CNS; 1.21 µM with U251 CNS. The TGI worked out at 1.28 µM in the assay on SK-MEL-5 melanoma, 1.27 µM with COLO 205 colon and 0.911 µM in the assay on SN12C renal.

For the compound `COc1cc(-c2csc(NC(=O)Nc3cc(C(F)(F)F)cc(C(F)(F)F)c3)n2)cc(OC)c1OC`, the GI50 with RPMI-8226 leukemia is 0.967 µM; in the assay on MDA-MB-231 breast, 1.59 µM; in the assay with T-47D breast it was 1.93 µM; in the assay on EKVX NSCLC, 2.38 µM; with SF-295 CNS, 1.83 µM; in the assay on U251 CNS it was 2.73 µM. The values for the GI50 in the assay on SK-MEL-5 melanoma, in the assay with COLO 205 colon and in the assay on SN12C renal were 1.57 µM, 1.8 µM and 3 µM, respectively. In addition, the TGI came to 3.76 µM with RPMI-8226 leukemia; 3.92 µM in the assay on MDA-MB-231 breast; 9.65 µM with T-47D breast; 13.9 µM in the assay on EKVX NSCLC; 5.46 µM with SF-295 CNS; 10.7 µM in the assay with U251 CNS. The TGI in the assay with SK-MEL-5 melanoma came out at 3.24 µM; with COLO 205 colon, 3.45 µM; in the assay on SN12C renal, 11.8 µM.

Turning to `COc1ccc([I+]c2ccccc2)cc1`, the GI50 was 2.04 µM in the assay on RPMI-8226 leukemia; greater than 78.2 µM in the assay on MDA-MB-231 breast; 9.22 µM with T-47D breast; 7.17 µM with SF-295 CNS; 7.94 µM in the assay with U251 CNS; 2.61 µM in the assay on SK-MEL-5 melanoma. Moreover, the GI50 in the assay with COLO 205 colon was 5.95 µM; with SN12C renal, 40.3 µM; in the assay on SR leukemia it was 1.78 µM. Moreover, the TGI was greater than 78.1 µM in the assay with RPMI-8226 leukemia; greater than 100 µM in the assay on MDA-MB-231 breast; greater than 100 µM with T-47D breast; 78.2 µM in the assay with SF-295 CNS; greater than 100 µM in the assay on U251 CNS; 11.5 µM in the assay with SK-MEL-5 melanoma. Moreover, the TGI in the assay on COLO 205 colon, with SN12C renal and with SR leukemia was greater than 100 µM in each case.
